# Results reported in US11912663B2, “Multi-targeted tyrosine kinase inhibitors and their pharmaceutical uses” (Shanghai AB PharmaTech Ltd., priority 2021, dated 2024).
# Key:
# [1] = target: RET (Homo sapiens (Human), UniProt P07949); experiment: kinase inhibition, Mobility-Shift Assay; assay type: biochemical; conditions: 23 μM ATP
# [2] = target: VEGFR2 (KDR) (Homo sapiens (Human), UniProt P35968); experiment: kinase inhibition, Mobility-Shift Assay; assay type: biochemical; conditions: VEGFR2, 92 μM ATP
# Sequence of VEGFR2 (KDR) (P35968 20-1356): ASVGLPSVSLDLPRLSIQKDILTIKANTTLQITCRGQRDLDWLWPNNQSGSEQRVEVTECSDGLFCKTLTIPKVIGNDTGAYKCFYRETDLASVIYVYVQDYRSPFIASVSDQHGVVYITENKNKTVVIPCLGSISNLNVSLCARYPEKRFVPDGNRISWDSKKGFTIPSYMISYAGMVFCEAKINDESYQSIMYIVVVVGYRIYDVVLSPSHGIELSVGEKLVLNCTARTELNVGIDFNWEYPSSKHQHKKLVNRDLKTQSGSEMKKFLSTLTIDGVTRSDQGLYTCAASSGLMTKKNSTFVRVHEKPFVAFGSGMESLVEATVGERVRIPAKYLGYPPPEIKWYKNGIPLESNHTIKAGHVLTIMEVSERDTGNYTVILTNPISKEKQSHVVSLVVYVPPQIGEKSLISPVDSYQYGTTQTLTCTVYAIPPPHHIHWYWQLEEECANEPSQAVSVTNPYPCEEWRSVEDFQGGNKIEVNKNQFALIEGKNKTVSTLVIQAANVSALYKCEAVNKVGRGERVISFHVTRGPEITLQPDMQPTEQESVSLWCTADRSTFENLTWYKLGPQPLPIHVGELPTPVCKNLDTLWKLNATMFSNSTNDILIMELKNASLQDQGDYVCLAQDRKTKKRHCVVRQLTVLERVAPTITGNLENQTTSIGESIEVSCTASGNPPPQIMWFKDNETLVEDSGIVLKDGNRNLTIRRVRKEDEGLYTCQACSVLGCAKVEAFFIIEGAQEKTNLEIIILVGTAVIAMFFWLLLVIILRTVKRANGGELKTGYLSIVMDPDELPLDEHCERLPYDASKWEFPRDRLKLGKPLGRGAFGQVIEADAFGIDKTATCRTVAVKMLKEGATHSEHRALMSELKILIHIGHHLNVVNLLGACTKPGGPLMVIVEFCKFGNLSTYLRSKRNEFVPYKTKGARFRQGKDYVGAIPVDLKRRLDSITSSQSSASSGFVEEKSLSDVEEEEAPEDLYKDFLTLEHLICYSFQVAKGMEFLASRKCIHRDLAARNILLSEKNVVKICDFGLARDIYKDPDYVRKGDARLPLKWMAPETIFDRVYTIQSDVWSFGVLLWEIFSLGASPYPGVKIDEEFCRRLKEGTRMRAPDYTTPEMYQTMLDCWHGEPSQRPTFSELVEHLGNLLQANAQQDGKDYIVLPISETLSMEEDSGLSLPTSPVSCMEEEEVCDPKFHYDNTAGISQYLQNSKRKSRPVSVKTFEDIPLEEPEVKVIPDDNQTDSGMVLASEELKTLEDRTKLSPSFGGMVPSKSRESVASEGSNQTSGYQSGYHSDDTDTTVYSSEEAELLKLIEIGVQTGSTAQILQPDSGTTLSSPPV
# [3] = MTD toxicity test in rats; assay type: in vivo; conditions: 150 mg/kg; for MTD toxicity test, clinical outcome: rat, in vivo; for autopsy results of organs: rats, QD, 14 days, heart, liver, lungs, kidneys, stomach, intestines and other organs
# [4] = system: kidney cancer cell line (Caki-1); experiment: tumor cell proliferation inhibition (CTG), kidney cancer cell line; assay type: cell-based; conditions: Homo sapiens, 72 hours, read-out: Caki-1 (renal cancer) IC50
# [5] = system: cervical cancer cell lines (Hela); experiment: tumor cell proliferation inhibition (CTG), cervical cancer cell line; assay type: cell-based; conditions: Homo sapiens, 72 hours
# [6] = target: VEGFR1 (FLT1) (Homo sapiens (Human), UniProt P17948); experiment: kinase inhibition, Mobility-Shift Assay; assay type: biochemical; conditions: 278 μM ATP
# Sequence of VEGFR1 (FLT1) (P17948 27-1338): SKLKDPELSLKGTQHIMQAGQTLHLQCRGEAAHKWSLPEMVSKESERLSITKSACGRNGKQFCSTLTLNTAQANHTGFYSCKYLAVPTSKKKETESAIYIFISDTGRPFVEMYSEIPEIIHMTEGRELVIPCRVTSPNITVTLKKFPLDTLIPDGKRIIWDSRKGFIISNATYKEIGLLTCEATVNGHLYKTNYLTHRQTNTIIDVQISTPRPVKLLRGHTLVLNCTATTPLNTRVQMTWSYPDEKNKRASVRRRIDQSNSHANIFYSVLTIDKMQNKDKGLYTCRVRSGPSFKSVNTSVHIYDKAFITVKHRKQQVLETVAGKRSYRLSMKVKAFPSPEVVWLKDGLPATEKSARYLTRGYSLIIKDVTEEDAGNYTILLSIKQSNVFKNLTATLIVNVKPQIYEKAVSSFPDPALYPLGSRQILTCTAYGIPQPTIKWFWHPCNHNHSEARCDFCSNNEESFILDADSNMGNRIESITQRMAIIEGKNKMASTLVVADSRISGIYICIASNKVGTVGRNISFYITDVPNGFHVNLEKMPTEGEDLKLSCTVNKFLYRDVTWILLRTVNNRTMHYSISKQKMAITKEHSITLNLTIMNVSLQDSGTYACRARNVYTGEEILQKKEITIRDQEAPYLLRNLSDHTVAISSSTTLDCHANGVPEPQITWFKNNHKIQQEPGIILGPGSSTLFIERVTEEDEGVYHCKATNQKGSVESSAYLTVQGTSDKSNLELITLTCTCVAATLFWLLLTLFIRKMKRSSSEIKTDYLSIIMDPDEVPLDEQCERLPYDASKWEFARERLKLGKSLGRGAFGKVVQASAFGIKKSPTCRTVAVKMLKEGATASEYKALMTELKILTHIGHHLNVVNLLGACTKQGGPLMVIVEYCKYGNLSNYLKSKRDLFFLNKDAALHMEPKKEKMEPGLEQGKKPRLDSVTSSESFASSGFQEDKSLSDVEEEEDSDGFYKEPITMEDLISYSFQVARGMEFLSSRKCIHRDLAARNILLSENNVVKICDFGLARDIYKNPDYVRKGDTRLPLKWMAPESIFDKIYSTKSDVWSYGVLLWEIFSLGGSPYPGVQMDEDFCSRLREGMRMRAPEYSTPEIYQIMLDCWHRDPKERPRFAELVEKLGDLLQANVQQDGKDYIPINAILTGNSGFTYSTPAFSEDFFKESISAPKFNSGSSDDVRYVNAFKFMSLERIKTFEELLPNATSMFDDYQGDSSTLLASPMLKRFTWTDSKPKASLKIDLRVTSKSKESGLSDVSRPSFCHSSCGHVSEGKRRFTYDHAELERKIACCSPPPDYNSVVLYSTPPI
# [7] = system: BXPC3, SNU16, Hep3B 2.1-7 subcutaneous tumors; experiment: tumor suppression in nude mice with subcutaneously transplanted tumors; assay type: in vivo; conditions: BXPC3, SNU16, Hep3B 2.1-7 transplants, within 3-4 weeks
# From the text: These preferred compounds (e.g., IIIb-08, IIIb-09, IIIb-45, IIIb-50, IIIb-55, IIIb-56, IIIb-57, IIIb-58, IIIb-60, IIIb-61, IIIb-65) are currently being used to […] in nude mice subcutaneously transplanted with pancreatic cancer cell line (BXPC3), gastric cancer cell line (SNU16), liver cancer cell line (Hep3B 2.1-7) and other tumor suppressive effects have been observed in vivo, the tumor suppression rate of subcutaneous tumors in nude mice could reach 80-110% within 3-4 weeks. […] Therefore, the preferred compounds “IIIb-08, IIIb-09, IIIb-45, IIIb-50, IIIb-55, IIIb-56, IIIb-57, IIIb-58, IIIb-60, IIIb-61, IIIb-65” designed and synthesized by the present invention not only have better inhibitory activity, but also have better safety and drug-forming properties, which are valuable for further preclinical studies such as pharmacotoxicology and clinical trials.
# [8] = system: leukemia cell line (K562); experiment: tumor cell proliferation inhibition (CTG), leukemia cell line; assay type: cell-based; conditions: Homo sapiens, 72 hours
# [9] = system: pancreatic cancer cell line (BXPC3); experiment: tumor cell proliferation inhibition (CTG), pancreatic cancer cell line; assay type: cell-based; conditions: Homo sapiens, BXPC-3, 72 hours
# [10] = system: gastric cancer cell line (SNU16); experiment: tumor cell proliferation inhibition (CTG), gastric cancer cell line; assay type: cell-based; conditions: Homo sapiens, SNU-16, 72 hours, read-out: SUN16 IC50
# [11] = system: hepatocellular carcinoma cell line (Hep3B 2.1-7); experiment: tumor cell proliferation inhibition (CTG), hepatocellular carcinoma cell line; assay type: cell-based; conditions: Homo sapiens, 72 hours
# [12] = target: VEGFR3 (FLT4) (Homo sapiens (Human), UniProt P35916); experiment: kinase inhibition, Mobility-Shift Assay; assay type: biochemical; conditions: 84 μM ATP
# [13] = system: lung cancer cell line (A549); experiment: tumor cell proliferation inhibition (CTG), lung cancer cell line; assay type: cell-based; conditions: Homo sapiens, 72 hours
# [14] = system: prostatic cancer (PC-3); experiment: tumor cell proliferation inhibition (CTG), PC-3; assay type: cell-based; conditions: 72 hours
# [15] = target: hERG potassium channels (Homo sapiens (Human), UniProt Q12809); experiment: in vitro inhibitory effect of hERG, whole-cell patch clamp; assay type: cell-based; conditions: whole-cell recording, room temperature
# Sequence of hERG potassium channels (Q12809 whole entry): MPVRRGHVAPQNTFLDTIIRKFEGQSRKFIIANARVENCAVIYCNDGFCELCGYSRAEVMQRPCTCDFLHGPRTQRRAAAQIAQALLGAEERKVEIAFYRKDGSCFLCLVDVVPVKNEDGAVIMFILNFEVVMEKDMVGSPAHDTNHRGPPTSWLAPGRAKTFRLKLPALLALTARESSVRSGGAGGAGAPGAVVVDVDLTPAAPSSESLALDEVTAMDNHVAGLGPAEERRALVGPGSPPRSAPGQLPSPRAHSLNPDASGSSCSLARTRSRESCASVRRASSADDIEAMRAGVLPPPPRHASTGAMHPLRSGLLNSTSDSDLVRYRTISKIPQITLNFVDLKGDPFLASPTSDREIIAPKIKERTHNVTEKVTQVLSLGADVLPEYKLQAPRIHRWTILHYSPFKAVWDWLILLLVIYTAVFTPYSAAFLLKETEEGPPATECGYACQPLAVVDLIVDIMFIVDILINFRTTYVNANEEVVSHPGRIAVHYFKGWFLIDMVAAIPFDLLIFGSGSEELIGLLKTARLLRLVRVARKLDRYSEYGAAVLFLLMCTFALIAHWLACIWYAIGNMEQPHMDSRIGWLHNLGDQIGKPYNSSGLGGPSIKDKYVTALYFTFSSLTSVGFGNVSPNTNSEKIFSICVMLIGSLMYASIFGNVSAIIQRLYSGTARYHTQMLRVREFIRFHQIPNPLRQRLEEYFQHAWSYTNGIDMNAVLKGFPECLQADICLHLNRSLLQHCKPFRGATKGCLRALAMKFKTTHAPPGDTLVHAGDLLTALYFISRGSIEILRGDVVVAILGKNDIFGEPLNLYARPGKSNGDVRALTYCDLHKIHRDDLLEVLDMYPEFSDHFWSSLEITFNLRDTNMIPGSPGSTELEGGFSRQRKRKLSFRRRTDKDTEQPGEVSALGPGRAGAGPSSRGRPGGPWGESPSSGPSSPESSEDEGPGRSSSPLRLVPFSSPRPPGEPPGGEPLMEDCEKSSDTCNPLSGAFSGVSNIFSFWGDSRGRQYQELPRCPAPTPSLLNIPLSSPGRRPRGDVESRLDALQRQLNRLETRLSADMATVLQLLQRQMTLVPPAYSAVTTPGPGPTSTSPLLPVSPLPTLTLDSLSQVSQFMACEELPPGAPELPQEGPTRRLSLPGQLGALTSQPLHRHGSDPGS
# [16] = target: FGFR2 (Homo sapiens (Human), UniProt P21802); experiment: kinase inhibition, Mobility-Shift Assay; assay type: biochemical; conditions: 1.9 μM ATP
# Sequence of RET (P07949 29-1114): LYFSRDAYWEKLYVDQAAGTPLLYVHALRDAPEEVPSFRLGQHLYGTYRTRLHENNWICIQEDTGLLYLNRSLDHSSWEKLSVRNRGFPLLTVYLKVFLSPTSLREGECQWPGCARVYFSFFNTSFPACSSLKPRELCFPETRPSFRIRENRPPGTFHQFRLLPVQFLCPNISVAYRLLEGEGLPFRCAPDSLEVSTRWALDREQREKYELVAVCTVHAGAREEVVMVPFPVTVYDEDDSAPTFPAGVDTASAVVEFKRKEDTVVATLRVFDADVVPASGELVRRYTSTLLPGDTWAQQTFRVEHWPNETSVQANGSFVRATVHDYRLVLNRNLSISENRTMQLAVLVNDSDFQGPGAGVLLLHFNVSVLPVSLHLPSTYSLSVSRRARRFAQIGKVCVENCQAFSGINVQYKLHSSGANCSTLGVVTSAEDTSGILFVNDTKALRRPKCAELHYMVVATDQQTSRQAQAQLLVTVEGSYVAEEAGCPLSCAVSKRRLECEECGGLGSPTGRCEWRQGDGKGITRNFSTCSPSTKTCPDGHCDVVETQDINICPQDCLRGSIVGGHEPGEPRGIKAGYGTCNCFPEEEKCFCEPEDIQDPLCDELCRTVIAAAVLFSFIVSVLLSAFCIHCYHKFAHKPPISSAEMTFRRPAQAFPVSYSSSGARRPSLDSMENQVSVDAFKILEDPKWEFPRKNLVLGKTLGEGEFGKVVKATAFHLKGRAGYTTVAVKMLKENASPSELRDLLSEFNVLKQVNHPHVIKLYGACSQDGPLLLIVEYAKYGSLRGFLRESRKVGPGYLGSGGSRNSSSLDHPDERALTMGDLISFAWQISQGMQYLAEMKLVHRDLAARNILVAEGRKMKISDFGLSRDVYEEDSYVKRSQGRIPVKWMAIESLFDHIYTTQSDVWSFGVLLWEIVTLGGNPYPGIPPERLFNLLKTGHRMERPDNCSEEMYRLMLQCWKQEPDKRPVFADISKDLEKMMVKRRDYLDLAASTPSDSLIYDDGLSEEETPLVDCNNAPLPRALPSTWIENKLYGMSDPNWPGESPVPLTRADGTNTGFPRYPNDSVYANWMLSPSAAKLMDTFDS
SMILES,IC50 [1] [nM],IC50 [2] [nM],"MTD toxicity test, clinical outcome [3]",autopsy results of organs [3],IC50 [4] [nM],IC50 [5] [nM],IC50 [6] [nM],tumor suppression rate of subcutaneous tumors [7],IC50 [8] [nM],IC50 [9] [nM],IC50 [10] [nM],IC50 [11] [nM],IC50 [12] [nM],IC50 [13] [nM],IC50 [14] [nM],IC50 [15] [nM],IC50 [16] [nM]
COc1cc2nccc(Oc3c(F)cc(NC(=O)NC4CC4)c(Cl)c3F)c2cc1C(=O)NCC(F)F [IIIb-08],< 5,< 5,no abnormalities such as death,did not reveal any abnormal changes,< 2500,< 5000,< 5,80-110%,< 5000,< 5000,< 5000,< 2500,< 5,< 2500,5000 to 10000,> 30000,< 50
COc1cc2nccc(Oc3c(F)cc(NC(=O)NC4CC4)c(Cl)c3F)c2cc1C(=O)NCC(F)(F)F [IIIb-09],5 to 10,< 5,no abnormalities such as death,did not reveal any abnormal changes,< 2500,< 5000,5 to 10,80-110%,< 5000,< 5000,< 5000,< 2500,< 5,< 2500,> 10000,> 30000,50 to 100
COc1cc2nccc(Oc3c(F)cc(NC(=O)NC4CC4)c(Cl)c3F)c2cc1C(=O)NCC#N [IIIb-45],< 5,< 5,no abnormalities such as death,did not reveal any abnormal changes,< 2500,< 5000,< 5,80-110%,< 5000,< 5000,< 5000,< 2500,< 5,< 2500,5000 to 10000,> 30000,< 50
COc1cc2nccc(Oc3c(F)cc(NC(=O)NC4CC4)c(Cl)c3F)c2cc1C(=O)NCCC#N [IIIb-50],< 5,< 5,no abnormalities such as death,did not reveal any abnormal changes,< 2500,< 5000,< 5,80-110%,< 5000,< 5000,< 5000,< 2500,< 5,< 2500,5000 to 10000,> 30000,< 50
NC(=O)c1cc2c(Oc3c(F)cc(NC(=O)NC4CC4)c(Cl)c3F)ccnc2cc1OCCF [IIIb-55],5 to 10,< 5,no abnormalities such as death,did not reveal any abnormal changes,< 2500,< 5000,< 5,80-110%,< 5000,< 5000,< 5000,< 2500,< 5,< 2500,5000 to 10000,> 30000,< 50
NC(=O)c1cc2c(Oc3c(F)cc(NC(=O)NC4CC4)c(Cl)c3F)ccnc2cc1OCC(F)F [IIIb-56],< 5,< 5,no abnormalities such as death,did not reveal any abnormal changes,< 2500,< 5000,< 5,80-110%,< 5000,< 5000,< 5000,< 2500,< 5,< 2500,5000 to 10000,> 30000,< 50
NC(=O)c1cc2c(Oc3c(F)cc(NC(=O)NC4CC4)c(Cl)c3F)ccnc2cc1OCC(F)(F)F [IIIb-57],< 5,< 5,no abnormalities such as death,did not reveal any abnormal changes,< 2500,< 5000,< 5,80-110%,< 5000,< 5000,< 5000,< 2500,< 5,< 2500,5000 to 10000,> 30000,< 50
N#CCOc1cc2nccc(Oc3c(F)cc(NC(=O)NC4CC4)c(Cl)c3F)c2cc1C(N)=O [IIIb-58],< 5,< 5,no abnormalities such as death,did not reveal any abnormal changes,< 2500,< 5000,< 5,80-110%,< 5000,< 5000,< 5000,< 2500,< 5,< 2500,5000 to 10000,> 30000,< 50
NC(=O)c1cc2c(Oc3c(F)cc(NC(=O)NC4CC4)c(Cl)c3F)ccnc2cc1OCCO [IIIb-60],< 5,< 5,no abnormalities such as death,did not reveal any abnormal changes,< 2500,< 5000,< 5,80-110%,< 5000,< 5000,< 5000,< 2500,< 5,< 2500,5000 to 10000,> 30000,< 50
NC(=O)c1cc2c(Oc3c(F)cc(NC(=O)NC4CC4)c(Cl)c3F)ccnc2cc1OCC1(N)CC1 [IIIb-61],< 5,< 5,no abnormalities such as death,did not reveal any abnormal changes,< 2500,< 5000,< 5,80-110%,< 5000,< 5000,< 5000,< 2500,< 5,< 2500,5000 to 10000,> 30000,< 50
N#CCCOc1cc2nccc(Oc3c(F)cc(NC(=O)NC4CC4)c(Cl)c3F)c2cc1C(N)=O [IIIb-65],< 5,< 5,no abnormalities such as death,did not reveal any abnormal changes,< 2500,< 5000,< 5,80-110%,< 5000,< 5000,< 5000,< 2500,< 5,< 2500,5000 to 10000,> 30000,< 50
